Values of other authors in publication PMC3834896.
Like-named read-outs stand apart in the source and are kept apart here.

Assay: not told

Structure (SMILES) | log partition n-octanol / PBS or water (not told) | log partition n-octanol / PBS or water
CCCCN1CCCCCC1=O | 1.8 log10 | –
CCCCCCCCCCCCN1CCCC1=O | – | 4.9 log10
CCCCCCCCN1CCCC1=O | – | 3.0 log10
CCCCCCN1CCCCC1=O | – | 2.6 log10
CCCCCCCCN1CCCCCC1=O | 4.0 log10 | –
CCCCCCN1CCCC1=O | – | 2.1 log10
CCCCCCCCCC(=O)N1CC(O)CC1C(=O)NCC (centres unmarked) | 2.9 log10 | –
CCCCN1CCCCC1=O | – | 1.4 log10

Results, then the compound that gave them:

log partition n-octanol / PBS or water (not told) | log partition n-octanol / PBS or water | Structure (SMILES)
2.9 log10 | – | CCCCCCN1CCCCCC1=O
1.9 log10 | – | CCCCCCC(=O)N(C)C
– | 1.02 log10 | CCCCN1CCCC1=O
6.3 log10 | – | CCCCCCCCCCCCN1CCCCCC1=O
– | 4.1 log10 | CCCCCCCCCCN1CCCC1=O
2.6 log10 | – | CCCCCCCC(=O)N(C)C
1.9 log10 | – | CCCCCCCCC(=O)N(C)C
– | 3.4 log10 | CCCCCCCCN1CCCCC1=O
1.4 log10 | – | CCCCCC(=O)N(C)C
